# Laboratory results published in US5622976A, “Oxadiazole derivatives having acetylcholinesterase-inhibitory and muscarinic agonist activity” (priority 1991, dated 1997).
# pIC50: −log10 of the molar value.
# Target: T1, acetylcholinesterase (Rattus norvegicus, UniProt P37136)
# T1 construct: obtained from rat's corpus striatum; from tissue; host or cells: rat corpus striatum
# Experiment: Inhibition of acetylcholinesterase (enzyme assay)
# Format: biochemical
# Details: acetylcholinesterase from rat's corpus striatum
# Procedure: The ability to inhibit acetylcholinesterase was determined by the method (enzyme assay) described in Clinica Chimica Acta, 115 (1981) 163-170. The acetylcholinesterase used in this test was obtained from rat's corpus striatum.
# T1 sequence (P37136 32-614): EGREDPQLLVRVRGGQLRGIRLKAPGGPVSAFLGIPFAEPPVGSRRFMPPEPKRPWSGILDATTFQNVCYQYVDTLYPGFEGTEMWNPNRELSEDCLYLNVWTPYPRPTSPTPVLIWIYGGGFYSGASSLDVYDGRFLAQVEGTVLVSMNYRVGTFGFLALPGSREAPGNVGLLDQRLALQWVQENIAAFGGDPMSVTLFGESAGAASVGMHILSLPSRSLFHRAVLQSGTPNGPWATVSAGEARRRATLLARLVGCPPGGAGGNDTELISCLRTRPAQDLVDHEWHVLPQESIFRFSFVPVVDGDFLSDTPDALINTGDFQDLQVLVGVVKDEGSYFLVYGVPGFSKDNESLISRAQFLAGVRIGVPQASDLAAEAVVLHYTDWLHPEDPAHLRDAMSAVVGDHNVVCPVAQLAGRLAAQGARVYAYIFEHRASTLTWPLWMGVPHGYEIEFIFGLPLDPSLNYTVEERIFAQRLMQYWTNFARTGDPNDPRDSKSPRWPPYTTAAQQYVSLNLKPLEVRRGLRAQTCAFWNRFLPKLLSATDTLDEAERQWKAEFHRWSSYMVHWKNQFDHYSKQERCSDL
row,Compound,pIC50
1,O=C(NCCC1CCN(Cc2ccccc2)CC1)c1noc(-c2ccc([N+](=O)[O-])cc2)n1 [(b)],8.77
2,O=C(NCCC1CCN(Cc2ccccc2)CC1)c1noc(C2CN3CCC2CC3)n1 (centres unmarked) [(a)],8.10
